Laboratory results taken from the supplement of paper PMC10307832.

Legend:
Experiment in all cases: relative viability (nuclei count vs DMSO), 5 days (fraction); higher = more cells survive
Selisistat + Foretinib = compound: C1CC(C2=C(C1)C3=C(N2)C=CC(=C3)Cl)C(=O)N [Selisistat] + COc1cc2c(Oc3ccc(NC(=O)C4(C(=O)Nc5ccc(F)cc5)CC4)cc3F)ccnc2cc1OCCCN1CCOCC1 [Foretinib] (partner 0.25 µM)
Method in brief: (§1)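 Relative viability divides the nuclei count in treated wells by that in vehicle wells. Lung cancer cell lines were seeded in 1536-well plates, dosed by pin tool the next day, and fixed and stained after 5 days in one step with final 0.05% Triton X-100, 1% formaldehyde and 1 ug/ml Hoechst. Dosing was a single drug or a fixed anchor-drug dose plus five library-drug doses (not always all listed) in √10 steps, and values are medians of duplicate plates imaged at 4×.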

Selisistat + Lapatinib = compound: C1CC(C2=C(C1)C3=C(N2)C=CC(=C3)Cl)C(=O)N [Selisistat] + CS(=O)(=O)CCNCc1ccc(-c2ccc3ncnc(Nc4ccc(OCc5cccc(F)c5)c(Cl)c4)c3c2)o1 [Lapatinib] (partner 2 µM)
Method in brief: as §1

Serdemetan + OSI-027 = compound: c1ccc2c(CCNc3ccc(Nc4ccncc4)cc3)c[nH]c2c1 [Serdemetan] + COc1cccc2cc(-c3nc([C@H]4CC[C@H](C(=O)O)CC4)n4ncnc(N)c34)[nH]c12 [OSI-027] (partner 0.5 µM)
Method in brief: as §1

Serdemetan + AZD7762 = compound: c1ccc2c(CCNc3ccc(Nc4ccncc4)cc3)c[nH]c2c1 [Serdemetan] + NC(=O)Nc1cc(-c2cccc(F)c2)sc1C(=O)N[C@H]1CCCNC1 [AZD7762] (partner 0.2 µM)
Method in brief: as §1

Cell Line | relative viability (Selisistat + Foretinib; first compound 0.4 µM) | relative viability (Selisistat + Foretinib; first compound 1.265 µM) | relative viability (Selisistat + Foretinib; first compound 4 µM) | relative viability (Selisistat + Foretinib; first compound 12.65 µM) | relative viability (Selisistat + Foretinib; first compound 40 µM) | relative viability (Selisistat + Lapatinib; first compound 0.4 µM) | relative viability (Selisistat + Lapatinib; first compound 1.265 µM) | relative viability (Selisistat + Lapatinib; first compound 4 µM) | relative viability (Selisistat + Lapatinib; first compound 12.65 µM) | relative viability (Selisistat + Lapatinib; first compound 40 µM) | relative viability (Serdemetan + OSI-027; first compound 0.04 µM) | relative viability (Serdemetan + OSI-027; first compound 0.1265 µM) | relative viability (Serdemetan + OSI-027; first compound 0.4 µM) | relative viability (Serdemetan + OSI-027; first compound 1.265 µM) | relative viability (Serdemetan + OSI-027; first compound 4 µM) | relative viability (Serdemetan + AZD7762; first compound 0.04 µM) | relative viability (Serdemetan + AZD7762; first compound 0.1265 µM) | relative viability (Serdemetan + AZD7762; first compound 0.4 µM) | relative viability (Serdemetan + AZD7762; first compound 1.265 µM) | relative viability (Serdemetan + AZD7762; first compound 4 µM)
NCI-H596 | 1.09 | 0.693 | 0.846 | 0.89 | 0.585 | 1.16 | 1.16 | 1.03 | 1.14 | 1.12 | 0.888 | 0.699 | 0.614 | 0.494 | 0.519 | 1.17 | 1.19 | 1.08 | 0.922 | 1.16
NCI-H647 | 1.18 | 1.13 | 1.19 | 1.16 | 1.25 | 1.19 | 1.07 |  | 0.993 | 1.17 | 0.609 | 0.634 | 0.751 | 0.585 | 0.648 | 0.556 | 0.382 | 0.396 | 0.41 | 0.285
NCI-H650 | 1.02 | 1.03 | 1.24 | 0.98 | 0.992 | 1.09 |  | 0.916 | 0.941 | 1.11 | 0.471 | 0.502 | 0.578 | 0.456 | 0.584 | 0.854 | 0.977 | 1.2 | 1.02 | 0.933
NCI-H727 | 0.883 | 1.05 |  | 1.04 | 0.872 | 0.626 | 0.841 |  |  | 0.725 | 0.69 | 0.681 | 0.567 | 0.466 | 0.499 | 0.562 | 0.437 | 0.526 | 0.443 | 0.481
NCI-H838 | 1.03 | 1.03 | 0.957 | 1.07 | 0.962 | 1.09 | 0.965 | 0.627 | 0.966 | 0.958 | 0.434 | 0.416 | 0.461 | 0.387 | 0.463 | 0.866 | 0.94 | 0.887 | 0.849 | 0.882
NCI-H1355 | 0.933 | 0.991 | 0.955 | 0.99 | 0.993 | 0.923 | 1 |  | 1.02 | 1.04 | 0.465 | 0.452 | 0.35 | 0.35 | 0.382 | 0.631 | 0.512 | 0.623 | 0.469 | 0.484
NCI-H1395 | 1.01 | 0.993 | 0.909 | 1.03 | 0.878 | 1.09 | 0.973 | 1 | 0.91 | 0.883 | 0.526 | 0.637 | 0.734 | 0.651 | 0.418 | 0.42 | 0.398 | 0.415 | 0.369 | 0.384
NCI-H1437 | 1.29 | 1.21 | 1.33 | 1.06 | 1 | 0.801 | 0.758 | 0.341 | 0.71 | 0.776 | 0.872 | 0.865 | 0.868 | 0.585 | 0.729 | 1.13 | 1.12 | 1.1 | 0.979 | 0.876
NCI-H1651 | 0.785 | 0.693 | 0.864 | 0.897 | 0.739 | 0.785 | 0.769 | 0.749 | 0.789 | 0.939 | 0.627 | 0.571 | 0.777 | 0.369 | 0.313 | 0.375 | 0.286 | 0.363 | 0.248 | 0.213
NCI-H1666 | 0.993 | 0.993 | 0.927 | 0.943 | 0.858 | 0.751 | 0.574 | 0.437 | 0.589 | 0.472 | 0.898 | 0.887 | 0.847 | 0.667 | 0.771 | 0.812 | 0.721 | 0.731 | 0.691 | 0.634
NCI-H1734 | 0.956 | 0.822 | 0.868 | 0.889 | 0.815 | 1.03 | 1.04 | 1.17 | 1.02 | 1.16 | 0.586 | 0.523 | 0.554 | 0.138 | 0.196 | 0.375 | 0.268 | 0.266 | 0.104 | 0.144
NCI-H1755 | 0.985 | 1.04 | 0.948 | 0.923 | 0.977 | 1.12 | 1.15 | 1.01 | 1.01 | 1.13 | 0.725 | 0.687 | 0.686 | 0.563 | 0.568 | 0.461 | 0.45 | 0.492 | 0.288 | 0.389
NCI-H1793 | 0.386 | 0.681 |  | 0.724 | 0.528 | 0.793 | 0.636 |  | 0.816 | 0.816 | 0.385 | 0.251 | 0.236 | 0.186 | 0.179 | 0.367 | 0.313 | 0.335 | 0.181 | 0.192
NCI-H1915 | 1.11 | 1.05 | 1.14 | 1.06 | 1.18 | 0.967 | 0.969 | 0.918 | 0.897 | 1.02 | 0.683 | 0.688 | 0.586 | 0.362 | 0.566 | 0.685 | 0.656 | 0.763 | 0.536 | 0.503
NCI-H1944 | 0.948 | 0.854 |  | 0.857 | 0.808 | 0.797 | 0.767 |  | 0.746 | 0.854 | 0.435 | 0.42 | 0.394 | 0.331 | 0.379 | 0.43 | 0.647 | 0.626 | 0.291 | 0.281
NCI-H1975 | 0.983 | 0.84 | 0.896 | 0.815 | 0.706 | 0.823 | 0.831 | 0.706 | 0.759 | 0.65 | 0.851 | 0.753 | 0.775 |  | 0.711 | 0.635 | 0.769 | 0.717 | 0.769 | 0.72
